Data published in paper PMC11509018, “Evaluation of the Role of Tanshinone I in an In Vitro System of Charcot-Marie-Tooth Disease Type 2N” (International Journal of Molecular Sciences, 2024).

Target: T1, AlaRS R326W binding to GST-Nrp1 b1 (Homo sapiens, UniProt P49588, R326W)
T1 construct: made in house; host or cells: E. coli BL21 (DE3), pET-21a for AlaRS
T1 sequence (P49588 1-968 R326W): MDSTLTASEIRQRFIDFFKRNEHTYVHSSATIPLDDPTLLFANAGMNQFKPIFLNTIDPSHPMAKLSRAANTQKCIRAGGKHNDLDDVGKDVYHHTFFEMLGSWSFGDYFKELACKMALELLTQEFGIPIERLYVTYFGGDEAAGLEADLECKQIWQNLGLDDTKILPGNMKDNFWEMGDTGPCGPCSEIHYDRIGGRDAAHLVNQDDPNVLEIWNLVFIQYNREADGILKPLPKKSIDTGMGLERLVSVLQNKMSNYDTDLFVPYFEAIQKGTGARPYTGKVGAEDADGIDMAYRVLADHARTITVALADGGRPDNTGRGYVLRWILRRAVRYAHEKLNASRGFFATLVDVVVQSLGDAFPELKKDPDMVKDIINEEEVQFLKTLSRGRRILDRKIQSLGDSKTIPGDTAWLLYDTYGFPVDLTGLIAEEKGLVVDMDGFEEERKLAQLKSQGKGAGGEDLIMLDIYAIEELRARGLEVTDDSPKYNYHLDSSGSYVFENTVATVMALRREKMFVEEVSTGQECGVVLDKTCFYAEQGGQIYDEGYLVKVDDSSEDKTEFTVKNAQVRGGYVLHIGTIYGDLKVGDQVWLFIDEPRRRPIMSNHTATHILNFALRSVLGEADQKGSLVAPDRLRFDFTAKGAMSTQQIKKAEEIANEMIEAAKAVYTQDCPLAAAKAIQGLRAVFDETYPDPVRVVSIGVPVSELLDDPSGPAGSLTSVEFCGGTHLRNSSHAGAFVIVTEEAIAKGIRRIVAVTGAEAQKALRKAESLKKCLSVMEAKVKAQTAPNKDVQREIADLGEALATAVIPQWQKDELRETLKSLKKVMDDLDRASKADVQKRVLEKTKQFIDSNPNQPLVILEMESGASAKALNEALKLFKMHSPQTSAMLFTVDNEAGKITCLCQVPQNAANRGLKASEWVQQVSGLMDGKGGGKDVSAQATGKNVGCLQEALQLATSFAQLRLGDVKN
Assay: GST pull down assay
Conditions: 20 µM Tanshinone I, ImageJ, average of three repeats
Procedure: To further investigate whether Tanshinone I-induced conformational changes in AlaRS CMT mutants affect their interaction with Nrp1, Co-IP experiments were performed in cells treated with Tanshinone I. By comparing Co-IP results obtained before and after treatment, we assessed the influence of the drug on the binding strength and mode between the AlaRS CMT mutants and Nrp1. […] To confirm the direct effect of Tanshinone I on the interaction between AlaRS CMT mutants and Nrp1, pull-down experiments were performed. […] Given that the interaction between AlaRS mutants and Nrp1 is associated with disease progression in CMT, the ability of Tanshinone I to disrupt this binding highlights its potential to intervene in the pathogenic mechanisms of these diseases.
Figure 7 The impact of Tanshinone I on the interaction between AlaRS mutants and Nrp1. (A) Co-IP assays were conducted to assess the binding between HA-AlaRS mutants and Nrp1, both with and without treatment with 20 µM Tanshinone I for 24 h. […] (C) Pull down assay was performed to detect the binding between AlaRS mutants and GST-Nrp1 b1 with or without 20 µM Tanshinone I. (D) Relative quantification statistics of the AlaRS mutants pulled down from the GST pull down experiments after Tanshinone I treatment were performed using ImageJ. (E) The cell viability of 293T and NSC34 cells treated with different concentrations of Tanshinone I was assessed using the CCK-8 assay over a 24 h period. TEXT PRINTED IN THE PICTURE: (B) Tanshinone I: Mean density band (N71Y): 0.60; Mean density band (G102R): 0.53; Mean density band (R326W): 0.50; Mean density band (R329H): 0.50; Mean density band (E337K): 0.62 | (D) Tanshinone I: Mean density band (N71Y): 0.82; Mean density band (G102R): 0.76; Mean density band (R326W): 0.84; Mean density band (R329H): 0.84; Mean density band (E337K): 0.90
To detect the direct interactions between the mutant proteins and Nrp1 in vitro, we performed a Glutathione S-transferase (GST) pull-down assay. AlaRS mutants fused with 6 × His were purified with Ni-NTA beads, followed by chromatography on a HiTrap Q HP column. Nrp1 b1 fragments fused with GST were purified with Glutathione Beads (#SA008100, Smart-Lifesciences, Changzhou, China). For GST pull-down assays, 1000 μg of each GST-fused Nrp1 b1 fragment was mixed with 200 μg of 6 × His-tagged fusion protein in binding buffer (50 mM Tris-HCl pH 7.5, 20 mM NaCl, 5% glycerol, 5 mM DTT with 0.1% BSA) at 4 °C overnight. The mixture was next incubated with 30 μL glutathione beads at 4 °C with constant rotation for 2–4 h. Subsequently, the bead/protein complex was washed three times, and eluted with 30 μL 2 × SDS sample buffer. The samples were then subjected to SDS-PAGE analysis. The experiment was repeated three times.

SMILES: Cc1coc2c1C(=O)C(=O)c1c-2ccc2c(C)cccc12 [Tanshinone I]
- Mean density band (R326W), relative quantification of AlaRS mutant pulled down: 0.84
